Results taken from the supplement of paper PMC12613149.

Key:
[1] = collision cross section (TIMS, N2 drift gas) of the primary ion; higher = larger gas-phase ion size
[2] = reversed-phase LC retention time (C18, 15 min MeOH gradient); higher = more hydrophobic / later elution
[3] = ionization mode: ESI+, ion species: [M+H]+
[4] = ionization mode: ESI-, ion species: [M-H]-
[5] = ionization mode: ESI+, ion species: [M]+

SMILES | collision cross section [1, 3] [Å²] | reversed-phase LC retention time [2, 3] [min] | collision cross section [1, 4] [Å²] | reversed-phase LC retention time [2, 4] [min] | collision cross section [1, 5] [Å²] | reversed-phase LC retention time [2, 5] [min]
CCN1CCN(c2cc3c(cc2F)c(=O)c(C(=O)O)cn3C2CC2)CC1 [Enrofloxacin] | 186.48 | 8.4 | – | – | – | –
CC(Oc1ccc(Oc2ncc(C(F)(F)F)cc2Cl)cc1)C(=O)O (stereo unspecified) [Haloxyfop-P] | 181.48 | 15.5 | 190.86 | 14 | – | –
CCc1cccc(C)c1N(C(=O)CS(=O)(=O)O)[C@@H](C)C(=O)O | – | – | 167.47 | 8.5 | – | –
C/C=C/C(=O)N(CC)c1ccccc1C [Crotamiton] | 144.88 | 14 | – | – | – | –
CC1(C)CC(NC(=O)c2cccc(C(=O)NC3CC(C)(C)NC(C)(C)C3)c2)CC(C)(C)N1 [Nylostab S-EED] | 235.31 | 8.03 | 232.92 | 11.7 | – | –
O=P(O)(O)C(F)(F)C(F)(F)C(F)(F)C(F)(F)C(F)(F)C(F)(F)F [Perfluorohexyl phosphonic acid] | – | – | 152.3 | 10.5 | – | –
COc1cccc([C@@]2(O)CCCC[C@@H]2CN(C)C)c1 [Tramadol] | 160.98 | 9.25 | – | – | – | –
CC(C)(C)CC(C)(C)c1ccc(Nc2ccc(C(C)(C)CC(C)(C)C)cc2)cc1 [N,N-Bis(4-tert-octylphenyl)amine] | 220.04 | 20.2 | – | – | – | –
CC(C)(C)CC(C)(C)c1ccc(OCCOCC[N+](C)(C)Cc2ccccc2)cc1 [Benzethonium] | – | – | – | – | 211.12 | 16.3
CC(C)(c1ccc(O)c(-c2ccccc2)c1)c1ccc(O)c(-c2ccccc2)c1 [Bisphenol PH] | – | – | 204.63 | 17.2 | – | –
C#CCOS(=O)OC1CCCCC1Oc1ccc(C(C)(C)C)cc1 (stereo unspecified) [Propargite] | 195.16 | 17.4 | – | – | – | –
CNC1=C(c2cccc(C(F)(F)F)c2)C(=O)C(c2ccccc2)O1 (stereo unspecified) [Flurtamone] | 179.28 | 13.9 | 175.08 | 14.2 | – | –
CCCCCCCCCCC[C@@H](C[C@@H]1OC(=O)[C@H]1CCCCCC)OC(=O)[C@H](CC(C)C)NC=O [Orlistat] | – | – | 232.61 | 19.9 | – | –
NC(=O)N1c2ccccc2C=Cc2ccccc21 [Carbamazepine] | 150.05 | 12.3 | – | – | – | –
Cc1ccc(NC(=O)N(C)C)cc1Cl [Chlorotoluron] | 147.58 | 12.5 | – | – | – | –
CCCCOC(=O)c1ccccc1C(=O)OCCCC [Dibutylphthalate] | 169.98 | 16.4 | – | – | – | –
Cc1cc(=O)[nH]c(C(C)C)n1 [2-Isopropyl-6-methyl-pyrimidin-4-ol] | 131.58 | 7.51 | – | – | – | –
CCCCCCCCCC[N+](C)(C)CCCCCCCCCC [Didecyldimethylammonium] | – | – | – | – | 211.39 | 17.3
CC(C)(C)C(O)C(Oc1ccc(-c2ccccc2)cc1)n1cncn1 (stereo unspecified) [Bitertanol] | 192.15 | 15.9 | – | – | – | –
COc1nc(NC(=O)NS(=O)(=O)c2ccccc2C(F)(F)F)nc(C(F)(F)F)n1 [Tritosulfuron] | 186.88 | 13.7 | 184.96 | 11.8 | – | –

SMILES | collision cross section [1, 3] [Å²] | reversed-phase LC retention time [2, 3] [min] | collision cross section [1, 4] [Å²] | reversed-phase LC retention time [2, 4] [min] | collision cross section [1, 5] [Å²] | reversed-phase LC retention time [2, 5] [min]
COc1cc(NS(=O)(=O)c2ccc(N)cc2)nc(OC)n1 [Sulfadimethoxine] | 170.07 | 9.96 | 170.58 | 6.81 | – | –
C#CC(C)(C)NC(=O)c1cc(Cl)cc(Cl)c1 [Propyzamide] | 158.35 | 14.2 | – | – | – | –
CCC(=O)O[C@]1(C(=O)CCl)[C@@H](C)C[C@H]2[C@@H]3CCC4=CC(=O)C=C[C@]4(C)[C@@]3(F)[C@@H](O)C[C@@]21C [Clobetasol propionate] | 207.98 | 15.2 | 210.25 | 15.6 | – | –
Nc1c(Cl)c(F)nc(OCC(=O)O)c1Cl [Fluroxypyr] | – | – | 139.78 | 7.61 | – | –
OCC1OC(OC2(CCl)OC(CCl)C(O)C2O)C(O)C(O)C1Cl (stereo unspecified) [Sucralose] | – | – | 174.98 | 8.22 | – | –
O=C(c1ccccc1)c1ccc(O)cc1O [2,4-Dihydroxybenzophenone] | – | – | 146.26 | 11.7 | – | –
O=S(=O)(O)C(F)(F)C(F)(F)C(F)(F)C(F)(F)C(F)(F)C(F)(F)C(F)(F)F [Perfluoroheptanesulfonic acid] | – | – | 159.45 | 14.7 | – | –
CN(C)c1ccc(C(=O)c2ccc(N(C)C)cc2)cc1 [Michler's ketone] | 166.78 | 14.9 | – | – | – | –
CCNc1nc(N)nc(Cl)n1 [Atrazine desisopropyl] | 132.48 | 8.1 | – | – | – | –
CC(COc1ccc(Oc2ccccc2)cc1)Oc1ccccn1 (stereo unspecified) [Pyriproxyfen] | 184.89 | 16.9 | – | – | – | –
CC(C)(Oc1ccc(CCNC(=O)c2ccc(Cl)cc2)cc1)C(=O)O [Bezafibrate] | 179.03 | 14 | 181.16 | 12.3 | – | –
CCS(=O)CCSP(=O)(OC)OC (stereo unspecified) [Demeton-S-methyl sulfoxide] | 142.73 | 7.58 | – | – | – | –
Cn1c(N)nc2c3cccnc3ccc21 [2-Amino-3-methyl-imidazo[4,5-f]quinoline (IQ)] | 138.89 | 6.04 | 139.48 | 8.79 | – | –
Cc1cccc(Nc2ccncc2S(=O)(=O)NC(=O)NC(C)C)c1 [Torasemide] | 188.49 | 11.5 | 184.59 | 12.4 | – | –
CC1=CC(=O)NS(=O)(=O)O1 [Acesulfame] | – | – | 122.01 | 2.26 | – | –
CC(=O)Nc1c(C)n(C)n(-c2ccccc2)c1=O [N-Acetyl-4-aminoantipyrine] | 154.74 | 7.85 | – | – | – | –
CCCCCCCCCCCCCC(=O)NCCC[N+](C)(C)CCCS(=O)(=O)O [Amidosulfobetaine-14] | – | – | – | – | 217.87 | 16.9
CC(CN1c2ccccc2Sc2ccccc21)N(C)C (stereo unspecified) [Promethazin] | 164.06 | 12.3 | – | – | – | –
O=C(OC1CCCCC1)c1ccccc1C(=O)OC1CCCCC1 [Dicyclohexylphthalate] | 187.61 | 17.5 | – | – | – | –
O=C(/C=C/C=C/c1ccc2c(c1)OCO2)N1CCCCC1 [Piperine] | 177.09 | 14.6 | – | – | – | –

SMILES | collision cross section [1, 3] [Å²] | reversed-phase LC retention time [2, 3] [min] | collision cross section [1, 4] [Å²] | reversed-phase LC retention time [2, 4] [min] | collision cross section [1, 5] [Å²] | reversed-phase LC retention time [2, 5] [min]
CCOP(=O)(OCC)OCC [Triethylphosphate] | 131.26 | 10.7 | – | – | – | –
COc1ccc2nc(SCc3ncc(C)c(OC)c3C)[nH]c2c1 [Omeprazole sulfide] | 179.62 | 11.2 | 181.72 | 13.9 | – | –
CCCCOCCOCCOCCO [Triethylene Glycol Monobutyl Ether] | 143.71 | 11.2 | – | – | – | –
N#Cc1nn(-c2c(Cl)cc(C(F)(F)F)cc2Cl)c(N)c1SC(F)(F)F [Fipronil sulfide] | – | – | 173.94 | 15.8 | – | –
C#CCOc1ccc(CCNC(=O)C(OCC#C)c2ccc(Cl)cc2)cc1OC (stereo unspecified) [Mandipropamid] | 194.91 | 14.2 | 195.62 | 14.6 | – | –
OC(Cn1cncn1)(c1ccc(F)cc1)c1ccccc1F (stereo unspecified) [Flutriafol] | 167.74 | 12.9 | – | – | – | –
O=S(=O)(O)c1cccc2c(O)cccc12 [5-Hydroxy-1-naphthalenesulfonic acid] | – | – | 143.15 | 2.41 | – | –
NC(=O)c1c(Cl)c(Cl)cc(C(=O)O)c1Cl | – | – | 155.56 | 4.88 | – | –
Cn1cnc2c1c(=O)n(CCCC(=O)O)c(=O)n2C [1-(3-carboxypropyl)-3,7-dimethylxanthine] | 154.67 | 8.35 | – | – | – | –
CC(C)CCCCCCOC(=O)C1CCCCC1C(=O)OCCCCCCC(C)C (stereo unspecified) [DINCH] | 228.01 | 20.1 | – | – | – | –
CCCCNc1ccc(C(=O)OCCN(C)C)cc1 [Tetracain] | 173.87 | 11.2 | – | – | – | –
CCCCC(CC)COP(=O)(OCC(CC)CCCC)OCC(CC)CCCC (stereo unspecified) [Tris(2-ethylhexl)phosphate] | 221.12 | 19.8 | – | – | – | –
CCC1(C2OC(C3OC(O)(CO)C(C)CC3C)CC2C)CCC(C2(C)CCC3(CC(O)C(C)C(C(C)C(OC)C(C)C(=O)O)O3)O2)O1 (stereo unspecified) [Monensin] | – | – | 244.26 | 17.5 | – | –
CCC(=O)Nc1ccc(Cl)c(Cl)c1 [Propanil] | 146.71 | 13.8 | 141.22 | 14.1 | – | –
COC(=O)N(OC)c1ccccc1COc1ccn(-c2ccc(Cl)cc2)n1 [Pyraclostrobin] | 184.99 | 15.8 | – | – | – | –
NS(=O)(=O)C(F)(F)C(F)(F)C(F)(F)C(F)(F)C(F)(F)C(F)(F)C(F)(F)C(F)(F)F [Perfluorooctanesulfonamide] | – | – | 169.81 | 15.7 | – | –
Cn1c(=O)c2[nH]cnc2n(C)c1=O [Theophyllin] | 135.99 | 6.64 | – | – | – | –
Cc1cc(C(F)(C(F)(F)F)C(F)(F)F)ccc1NC(=O)c1cccc(I)c1C(=O)NC(C)(C)CS(C)(=O)=O [Flubendiamide] | – | – | 222.96 | 15.8 | – | –
CNC(=O)c1cc(Cl)cc(C)c1NC(=O)c1cc(Br)nn1-c1ncccc1Cl [Chlorantraniliprole] | 199.14 | 13.5 | 197.51 | 13.8 | – | –
CCCCCCOc1ccc(-c2nc(-c3ccccc3)nc(-c3ccccc3)n2)c(O)c1 [2-(4,6-Diphenyl-1,3,5-triazine-2-yl)-5-(hexyloxy)-phenol] | 221.42 | 21.2 | – | – | – | –
